{"source": "the supplement of paper PMC10307832", "assay_in_all_cases": "relative viability (nuclei count vs DMSO), 5 days (fraction); higher = more cells survive", "key": {"NCI-H596": {"tested_on": "NCI-H596", "outline": "(§1)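 Lung cancer cell lines in 1536-well plates were dosed by pin tool the day after seeding, either with one drug alone or with a fixed anchor-drug dose plus five library-drug doses (not always all listed) in √10 steps. After 5 days, cells were fixed and their nuclei stained in one step (final 0.05% Triton X-100, 1% formaldehyde, 1 ug/ml Hoechst), then counted on 4× images. Relative viability is the nuclei count in treated wells divided by that in vehicle wells. Values are medians of duplicate plates.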"}, "NCI-H1623": {"tested_on": "NCI-H1623", "outline": "as §1"}, "NCI-H1299": {"tested_on": "NCI-H1299", "outline": "as §1"}, "Calu-6": {"tested_on": "Calu-6", "outline": "as §1"}, "IA-LM": {"tested_on": "IA-LM", "outline": "as §1"}, "EBC-1": {"tested_on": "EBC-1", "outline": "as §1"}, "NCI-H1648": {"tested_on": "NCI-H1648", "outline": "as §1"}, "NCI-H1703": {"tested_on": "NCI-H1703", "outline": "as §1"}, "A549": {"tested_on": "A549", "outline": "as §1"}}}
{"smiles": "Clc1ccc(Nc2nnc(Cc3ccncc3)c3ccccc23)cc1", "note": "[Vatalanib] + CCNC(=O)c1noc(-c2cc(C(C)C)c(O)cc2O)c1-c1ccc(CN2CCOCC2)cc1 [Luminespib] (partner 0.01 µM)", "values": [{"measurement": "relative viability", "setting": "NCI-H596; first compound 0.04 µM", "value": 0.955}, {"measurement": "relative viability", "setting": "NCI-H596; first compound 0.1265 µM", "value": 0.941}, {"measurement": "relative viability", "setting": "NCI-H596; first compound 0.4 µM", "value": 0.953}, {"measurement": "relative viability", "setting": "NCI-H596; first compound 1.265 µM", "value": 1.01}, {"measurement": "relative viability", "setting": "NCI-H596; first compound 4 µM", "value": 1.19}, {"measurement": "relative viability", "setting": "NCI-H1623; first compound 0.04 µM", "value": 0.428}, {"measurement": "relative viability", "setting": "NCI-H1623; first compound 0.1265 µM", "value": 0.616}, {"measurement": "relative viability", "setting": "NCI-H1623; first compound 0.4 µM", "value": 0.579}, {"measurement": "relative viability", "setting": "NCI-H1623; first compound 1.265 µM", "value": 0.471}, {"measurement": "relative viability", "setting": "NCI-H1623; first compound 4 µM", "value": 0.478}]}
{"smiles": "C[C@@H]1CN(CC(=O)Nc2ccc3c(c2)Cc2cccc(-c4cc(=O)cc(N5CCOCC5)o4)c2S3)C[C@H](C)O1", "note": "+ CCNC(=O)c1noc(-c2cc(C(C)C)c(O)cc2O)c1-c1ccc(CN2CCOCC2)cc1 [Luminespib] (partner 0.01 µM)", "values": [{"measurement": "relative viability", "setting": "NCI-H596; first compound 0.04 µM", "value": 1.16}, {"measurement": "relative viability", "setting": "NCI-H596; first compound 0.1265 µM", "value": 1.18}, {"measurement": "relative viability", "setting": "NCI-H596; first compound 0.4 µM", "value": 0.921}, {"measurement": "relative viability", "setting": "NCI-H596; first compound 4 µM", "value": 0.964}, {"measurement": "relative viability", "setting": "NCI-H1623; first compound 0.04 µM", "value": 0.439}, {"measurement": "relative viability", "setting": "NCI-H1623; first compound 0.1265 µM", "value": 0.473}, {"measurement": "relative viability", "setting": "NCI-H1623; first compound 0.4 µM", "value": 0.442}, {"measurement": "relative viability", "setting": "NCI-H1623; first compound 4 µM", "value": 0.561}]}
{"smiles": "C[C@@H]1CN(CC(=O)Nc2ccc3c(c2)Cc2cccc(-c4cc(=O)cc(N5CCOCC5)o4)c2S3)C[C@H](C)O1", "note": "+ O=C(c1cc(Cc2n[nH]c(=O)c3ccccc23)ccc1F)N1CCN(C(=O)C2CC2)CC1 [Olaparib] (partner 8 µM)", "values": [{"measurement": "relative viability", "setting": "NCI-H1299; first compound 0.04 µM", "value": 1.08}, {"measurement": "relative viability", "setting": "NCI-H1299; first compound 0.1265 µM", "value": 1}, {"measurement": "relative viability", "setting": "NCI-H1299; first compound 0.4 µM", "value": 1.05}, {"measurement": "relative viability", "setting": "NCI-H1299; first compound 4 µM", "value": 0.488}, {"measurement": "relative viability", "setting": "NCI-H596; first compound 0.04 µM", "value": 0.601}, {"measurement": "relative viability", "setting": "NCI-H596; first compound 0.1265 µM", "value": 0.624}, {"measurement": "relative viability", "setting": "NCI-H596; first compound 0.4 µM", "value": 0.641}, {"measurement": "relative viability", "setting": "NCI-H596; first compound 4 µM", "value": 0.486}, {"measurement": "relative viability", "setting": "Calu-6; first compound 0.04 µM", "value": 0.646}, {"measurement": "relative viability", "setting": "Calu-6; first compound 0.1265 µM", "value": 0.573}, {"measurement": "relative viability", "setting": "Calu-6; first compound 0.4 µM", "value": 0.672}, {"measurement": "relative viability", "setting": "Calu-6; first compound 4 µM", "value": 0.299}, {"measurement": "relative viability", "setting": "IA-LM; first compound 0.04 µM", "value": 0.844}, {"measurement": "relative viability", "setting": "IA-LM; first compound 0.1265 µM", "value": 0.976}, {"measurement": "relative viability", "setting": "IA-LM; first compound 0.4 µM", "value": 0.792}, {"measurement": "relative viability", "setting": "IA-LM; first compound 4 µM", "value": 0.207}, {"measurement": "relative viability", "setting": "EBC-1; first compound 0.04 µM", "value": 0.736}, {"measurement": "relative viability", "setting": "EBC-1; first compound 0.1265 µM", "value": 0.723}, {"measurement": "relative viability", "setting": "EBC-1; first compound 0.4 µM", "value": 0.494}, {"measurement": "relative viability", "setting": "EBC-1; first compound 4 µM", "value": 0.147}, {"measurement": "relative viability", "setting": "NCI-H1648; first compound 0.04 µM", "value": 0.56}, {"measurement": "relative viability", "setting": "NCI-H1648; first compound 0.1265 µM", "value": 1.08}, {"measurement": "relative viability", "setting": "NCI-H1648; first compound 0.4 µM", "value": 0.879}, {"measurement": "relative viability", "setting": "NCI-H1648; first compound 4 µM", "value": 0.56}, {"measurement": "relative viability", "setting": "NCI-H1703; first compound 0.04 µM", "value": 0.489}, {"measurement": "relative viability", "setting": "NCI-H1703; first compound 0.1265 µM", "value": 0.407}, {"measurement": "relative viability", "setting": "NCI-H1703; first compound 0.4 µM", "value": 0.295}, {"measurement": "relative viability", "setting": "NCI-H1703; first compound 4 µM", "value": 0.208}, {"measurement": "relative viability", "setting": "A549; first compound 0.04 µM", "value": 0.239}, {"measurement": "relative viability", "setting": "A549; first compound 0.1265 µM", "value": 0.334}, {"measurement": "relative viability", "setting": "A549; first compound 0.4 µM", "value": 0.332}, {"measurement": "relative viability", "setting": "A549; first compound 4 µM", "value": 0.0917}]}
{"smiles": "CC(C)Oc1cc(Nc2nc(N[C@@H](C)c3ccc(F)cn3)ncc2Cl)n[nH]1", "note": "[AZ23] + Cc1nc(Nc2ncc(C(=O)Nc3c(C)cccc3Cl)s2)cc(N2CCN(CCO)CC2)n1 [Dasatinib] (partner 0.075 µM)", "values": [{"measurement": "relative viability", "setting": "NCI-H596; first compound 0.01 µM", "value": 0.52}, {"measurement": "relative viability", "setting": "NCI-H596; first compound 0.03162 µM", "value": 0.616}, {"measurement": "relative viability", "setting": "NCI-H596; first compound 0.3162 µM", "value": 0.557}, {"measurement": "relative viability", "setting": "NCI-H1623; first compound 0.01 µM", "value": 0.503}, {"measurement": "relative viability", "setting": "NCI-H1623; first compound 0.03162 µM", "value": 0.578}, {"measurement": "relative viability", "setting": "NCI-H1623; first compound 0.3162 µM", "value": 0.57}]}
{"smiles": "COc1cc(N2CCC(C(N)=O)CC2)ccc1Nc1nc(N)c(Cl)c(Nc2ccccc2S(=O)(=O)C(C)C)n1", "note": "[HG-5-88-01] + CCNC(=O)c1noc(-c2cc(C(C)C)c(O)cc2O)c1-c1ccc(CN2CCOCC2)cc1 [Luminespib] (partner 0.01 µM)", "values": [{"measurement": "relative viability", "setting": "NCI-H596; first compound 0.04 µM", "value": 1.18}, {"measurement": "relative viability", "setting": "NCI-H596; first compound 0.1265 µM", "value": 1.09}, {"measurement": "relative viability", "setting": "NCI-H596; first compound 0.4 µM", "value": 1.07}, {"measurement": "relative viability", "setting": "NCI-H596; first compound 1.265 µM", "value": 1.17}, {"measurement": "relative viability", "setting": "NCI-H596; first compound 4 µM", "value": 1.22}, {"measurement": "relative viability", "setting": "NCI-H1623; first compound 0.04 µM", "value": 0.539}, {"measurement": "relative viability", "setting": "NCI-H1623; first compound 0.1265 µM", "value": 0.619}, {"measurement": "relative viability", "setting": "NCI-H1623; first compound 0.4 µM", "value": 0.529}, {"measurement": "relative viability", "setting": "NCI-H1623; first compound 4 µM", "value": 0.47}]}
{"smiles": "CC(C)Oc1cc(Nc2nc(N[C@@H](C)c3ccc(F)cn3)ncc2Cl)n[nH]1", "note": "[AZ23] + O=C(c1cc(Cc2n[nH]c(=O)c3ccccc23)ccc1F)N1CCN(C(=O)C2CC2)CC1 [Olaparib] (partner 8 µM)", "values": [{"measurement": "relative viability", "setting": "NCI-H1299; first compound 0.01 µM", "value": 1.06}, {"measurement": "relative viability", "setting": "NCI-H1299; first compound 0.03162 µM", "value": 0.984}, {"measurement": "relative viability", "setting": "NCI-H1299; first compound 0.3162 µM", "value": 1.03}, {"measurement": "relative viability", "setting": "NCI-H596; first compound 0.01 µM", "value": 0.603}, {"measurement": "relative viability", "setting": "NCI-H596; first compound 0.03162 µM", "value": 0.749}, {"measurement": "relative viability", "setting": "NCI-H596; first compound 0.3162 µM", "value": 0.665}, {"measurement": "relative viability", "setting": "Calu-6; first compound 0.03162 µM", "value": 0.662}, {"measurement": "relative viability", "setting": "Calu-6; first compound 0.3162 µM", "value": 0.644}, {"measurement": "relative viability", "setting": "IA-LM; first compound 0.01 µM", "value": 0.79}, {"measurement": "relative viability", "setting": "IA-LM; first compound 0.03162 µM", "value": 0.914}, {"measurement": "relative viability", "setting": "IA-LM; first compound 0.3162 µM", "value": 0.949}, {"measurement": "relative viability", "setting": "EBC-1; first compound 0.01 µM", "value": 0.884}, {"measurement": "relative viability", "setting": "EBC-1; first compound 0.03162 µM", "value": 0.767}, {"measurement": "relative viability", "setting": "EBC-1; first compound 0.3162 µM", "value": 0.734}, {"measurement": "relative viability", "setting": "NCI-H1648; first compound 0.01 µM", "value": 0.6}, {"measurement": "relative viability", "setting": "NCI-H1648; first compound 0.03162 µM", "value": 1.01}, {"measurement": "relative viability", "setting": "NCI-H1648; first compound 0.3162 µM", "value": 0.697}, {"measurement": "relative viability", "setting": "NCI-H1703; first compound 0.03162 µM", "value": 0.411}, {"measurement": "relative viability", "setting": "NCI-H1703; first compound 0.3162 µM", "value": 0.397}, {"measurement": "relative viability", "setting": "A549; first compound 0.01 µM", "value": 0.201}, {"measurement": "relative viability", "setting": "A549; first compound 0.03162 µM", "value": 0.54}, {"measurement": "relative viability", "setting": "A549; first compound 0.3162 µM", "value": 0.327}]}
